US10894793B2, “Bicyclic pyridine, pyrazine, and pyrimidine derivatives as PI3K beta inhibitors” (Janssen Pharmaceutica NV, priority 2016, dated 2021)
pIC50, pKd: −log10 of the molar value.

Tests used:
MTOR_h = target: T1, MTOR_h (Homo sapiens, UniProt P42345); assay: Enzyme binding assay (KINOMEscan); details: DiscoveRx
T1 construct: purchased DiscoveRx Corporation
Method: (§1) Enzyme Binding Assays (KINOMEscan®)
(§2) Kinase enzyme binding affinities of compounds disclosed herein were determined using the KINOMEscan technology performed by DiscoveRx Corporation, San Diego, Calif., USA (www.kinomescan.com). Table A reports the obtained Kd values (nM), with the Kd being the inhibitor binding constant: […]

PIK3Cα_h = target: T2, PIK3Cα_h (Homo sapiens, UniProt P42336); assay: Enzyme binding assay (KINOMEscan); details: DiscoveRx
T2 construct: purchased DiscoveRx Corporation
Method: as §1, §2

PIK3Cβ_h = target: T3, PIK3Cβ_h (Homo sapiens, UniProt P42338); assay: Enzyme binding assay (KINOMEscan); details: DiscoveRx
T3 construct: purchased DiscoveRx Corporation
Method: as §1, §2

PIK3Cγ_h = target: T4, PIK3Cγ_h (Homo sapiens, UniProt P48736); assay: Enzyme binding assay (KINOMEscan); details: DiscoveRx
T4 construct: purchased DiscoveRx Corporation
Method: as §1, §2

PIK3Cδ_h = target: T5, PIK3Cδ_h (Homo sapiens, UniProt O00329); assay: Enzyme binding assay (KINOMEscan); details: DiscoveRx
T5 construct: purchased DiscoveRx Corporation
T5 sequence (O00329 1-1044): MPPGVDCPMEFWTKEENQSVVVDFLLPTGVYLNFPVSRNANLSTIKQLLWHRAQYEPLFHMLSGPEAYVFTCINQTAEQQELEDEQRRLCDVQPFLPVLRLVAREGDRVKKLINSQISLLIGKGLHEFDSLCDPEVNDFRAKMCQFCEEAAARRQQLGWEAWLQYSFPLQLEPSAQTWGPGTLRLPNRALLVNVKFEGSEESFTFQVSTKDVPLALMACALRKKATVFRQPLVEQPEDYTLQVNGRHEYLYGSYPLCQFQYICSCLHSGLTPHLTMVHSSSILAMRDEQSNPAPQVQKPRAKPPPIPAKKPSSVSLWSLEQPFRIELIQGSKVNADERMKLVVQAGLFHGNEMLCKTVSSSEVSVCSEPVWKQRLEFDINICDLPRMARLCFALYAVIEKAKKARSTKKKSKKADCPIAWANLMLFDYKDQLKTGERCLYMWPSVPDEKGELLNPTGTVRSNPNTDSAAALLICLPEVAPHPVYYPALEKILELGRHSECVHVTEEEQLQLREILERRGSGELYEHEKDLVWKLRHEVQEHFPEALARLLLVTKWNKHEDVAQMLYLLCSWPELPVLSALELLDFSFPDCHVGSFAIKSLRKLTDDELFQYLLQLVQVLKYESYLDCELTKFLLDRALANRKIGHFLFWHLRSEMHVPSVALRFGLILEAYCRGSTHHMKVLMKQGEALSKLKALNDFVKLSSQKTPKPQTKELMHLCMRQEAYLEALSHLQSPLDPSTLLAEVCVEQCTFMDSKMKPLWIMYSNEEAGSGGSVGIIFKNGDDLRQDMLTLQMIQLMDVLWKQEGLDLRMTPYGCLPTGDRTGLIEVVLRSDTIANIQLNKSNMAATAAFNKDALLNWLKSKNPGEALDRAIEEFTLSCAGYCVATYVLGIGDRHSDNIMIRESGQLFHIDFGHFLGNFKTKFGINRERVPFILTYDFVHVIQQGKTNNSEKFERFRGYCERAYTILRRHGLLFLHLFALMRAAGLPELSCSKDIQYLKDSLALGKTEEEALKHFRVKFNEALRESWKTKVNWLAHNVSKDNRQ
Method: as §1, §2

[1] = tested on: Akt phosphorylated at Ser473 in PC-3 cells; assay: Cellular assay: phosphorylation of Akt (Ser473) in PC-3 cells, MSD ELISA; type: cell-based; details: Homo sapiens, PC-3, 1 h, 60 min compound incubation, read-out: IC50 pAkt_S473
Method: (§3) Cellular activity of PI3Kβ inhibitors was determined by quantifying the phosphorylation of Akt in PC-3 cells. Akt phosphorylated at Ser473 and Thr308 were measured using an enzyme-linked immunosorbent assay (ELISA; Meso Scale Discovery (MSD), Gaithersburg, Md.) and specific primary antibodies from MSD.
(§4) On day 1, PC3 cells (ATCC #[…]) were seeded into PerkinElmer MW96 plates at 25.000 cells per well, in 75 μl complete culture medium (DMEM high glucose, AQmedia™, D0819, Sigma-Aldrich) containing 10% heat inactivated FCS and incubated at 37° C., […] during 24 hours. On day 2, compound or DMSO (0.3%) was added and cells were further incubated for 60 min at 37° C., 5% CO2 in a total volume of 100 μl of medium.
(§5) The phosphoprotein assay was executed according to vendor instructions in the Phospho-Akt (Ser473) Assay Whole Cell Lysate Kit (MSD #K15100D-3) and the Phospho-Akt (Thr308) Assay Whole Cell Lysate Kit (MSD #K151DYD-3) using the lysis, blocking and wash buffer provided.
(§6) Briefly, at the end of the cell treatment period, media were removed by aspiration and adherent cells were lysed in 50 μl ice-cold lysis buffer. MSD plates are supplied pre-coated with capture antibodies for Phospho-Akt (Ser473 and Thr308). After blocking, lysates from tissue culture plates were added and plates were washed. Then, a solution containing the detection antibody (anti-total Akt conjugated with an electrochemiluminescent compound-MSD Sulfo-tag label) was added. The signals were detected using an MSD SECTOR Imager 6000 and are proportional to the phospho-Akt titres.
(§7) Data were processed. The percentage of inhibition was plotted against the log concentration of test compounds, and the sigmoidal log concentration-effect curve of best fit was calculated by nonlinear regression analysis. From these concentration-response curves, the IC50 values were calculated. Five concentrations were used for curve fitting.

[2] = tested on: Akt phosphorylated at Thr308 in PC-3 cells; assay: Cellular assay: phosphorylation of Akt (Thr308) in PC-3 cells, MSD ELISA; type: cell-based; details: Homo sapiens, PC-3, 1 h, 60 min compound incubation, read-out: IC50 pAkt_Thr308
Method: as §3, §4, §5, §6, §7

T4 sequence (P48736 whole entry): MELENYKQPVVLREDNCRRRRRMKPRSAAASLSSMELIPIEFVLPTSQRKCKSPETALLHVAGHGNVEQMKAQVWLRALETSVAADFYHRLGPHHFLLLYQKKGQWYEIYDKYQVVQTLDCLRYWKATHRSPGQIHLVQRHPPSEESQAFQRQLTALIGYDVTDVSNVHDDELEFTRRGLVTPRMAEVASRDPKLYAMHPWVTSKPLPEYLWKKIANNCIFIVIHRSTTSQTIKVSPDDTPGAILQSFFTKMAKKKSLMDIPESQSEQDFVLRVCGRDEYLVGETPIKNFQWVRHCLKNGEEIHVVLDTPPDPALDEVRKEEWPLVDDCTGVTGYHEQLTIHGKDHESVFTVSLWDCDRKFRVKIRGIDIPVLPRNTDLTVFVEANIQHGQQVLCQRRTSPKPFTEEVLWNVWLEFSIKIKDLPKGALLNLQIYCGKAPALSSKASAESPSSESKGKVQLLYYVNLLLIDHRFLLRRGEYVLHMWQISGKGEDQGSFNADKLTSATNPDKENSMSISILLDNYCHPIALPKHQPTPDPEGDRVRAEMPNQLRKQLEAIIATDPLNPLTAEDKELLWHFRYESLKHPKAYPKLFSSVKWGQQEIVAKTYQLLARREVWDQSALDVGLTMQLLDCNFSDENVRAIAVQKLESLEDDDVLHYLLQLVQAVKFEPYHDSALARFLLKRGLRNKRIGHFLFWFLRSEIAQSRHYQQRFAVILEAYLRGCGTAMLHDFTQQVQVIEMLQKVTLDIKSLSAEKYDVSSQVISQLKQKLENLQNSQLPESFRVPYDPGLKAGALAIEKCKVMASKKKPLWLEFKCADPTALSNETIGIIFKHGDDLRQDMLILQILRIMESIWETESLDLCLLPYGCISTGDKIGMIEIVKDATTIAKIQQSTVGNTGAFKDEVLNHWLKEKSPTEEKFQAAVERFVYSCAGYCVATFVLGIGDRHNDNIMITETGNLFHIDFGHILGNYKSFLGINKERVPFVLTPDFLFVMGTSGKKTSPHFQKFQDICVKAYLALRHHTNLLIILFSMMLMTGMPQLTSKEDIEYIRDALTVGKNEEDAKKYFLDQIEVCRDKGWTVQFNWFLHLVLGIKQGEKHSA
T3 sequence (P42338 whole entry): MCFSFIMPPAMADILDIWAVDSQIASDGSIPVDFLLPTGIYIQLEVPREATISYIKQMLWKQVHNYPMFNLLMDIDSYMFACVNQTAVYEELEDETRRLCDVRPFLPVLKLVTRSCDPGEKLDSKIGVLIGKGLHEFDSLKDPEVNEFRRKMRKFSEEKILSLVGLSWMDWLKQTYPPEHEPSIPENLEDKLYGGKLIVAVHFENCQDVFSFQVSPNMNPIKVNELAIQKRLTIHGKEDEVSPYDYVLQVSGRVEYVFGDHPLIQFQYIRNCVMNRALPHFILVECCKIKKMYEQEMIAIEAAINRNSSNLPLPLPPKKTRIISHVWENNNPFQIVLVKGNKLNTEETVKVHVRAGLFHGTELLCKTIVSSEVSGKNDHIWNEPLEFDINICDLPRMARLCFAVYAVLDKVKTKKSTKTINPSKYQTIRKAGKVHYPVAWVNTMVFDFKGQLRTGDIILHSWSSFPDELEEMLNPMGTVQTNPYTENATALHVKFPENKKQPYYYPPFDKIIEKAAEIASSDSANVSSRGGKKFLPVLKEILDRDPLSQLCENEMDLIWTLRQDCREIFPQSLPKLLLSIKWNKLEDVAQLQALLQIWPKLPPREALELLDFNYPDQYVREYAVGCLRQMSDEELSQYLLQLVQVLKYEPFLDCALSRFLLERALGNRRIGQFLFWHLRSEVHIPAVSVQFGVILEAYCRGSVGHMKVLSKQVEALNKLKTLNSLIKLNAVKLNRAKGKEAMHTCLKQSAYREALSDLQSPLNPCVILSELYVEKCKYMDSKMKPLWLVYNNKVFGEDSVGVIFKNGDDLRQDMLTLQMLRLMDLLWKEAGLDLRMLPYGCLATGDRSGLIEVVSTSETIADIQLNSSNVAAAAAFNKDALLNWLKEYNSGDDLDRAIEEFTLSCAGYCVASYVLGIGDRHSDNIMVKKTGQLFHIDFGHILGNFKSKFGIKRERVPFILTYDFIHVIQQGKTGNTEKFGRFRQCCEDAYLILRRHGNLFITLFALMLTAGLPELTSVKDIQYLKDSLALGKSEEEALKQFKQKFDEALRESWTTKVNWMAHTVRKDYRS
T2 sequence (P42336 whole entry): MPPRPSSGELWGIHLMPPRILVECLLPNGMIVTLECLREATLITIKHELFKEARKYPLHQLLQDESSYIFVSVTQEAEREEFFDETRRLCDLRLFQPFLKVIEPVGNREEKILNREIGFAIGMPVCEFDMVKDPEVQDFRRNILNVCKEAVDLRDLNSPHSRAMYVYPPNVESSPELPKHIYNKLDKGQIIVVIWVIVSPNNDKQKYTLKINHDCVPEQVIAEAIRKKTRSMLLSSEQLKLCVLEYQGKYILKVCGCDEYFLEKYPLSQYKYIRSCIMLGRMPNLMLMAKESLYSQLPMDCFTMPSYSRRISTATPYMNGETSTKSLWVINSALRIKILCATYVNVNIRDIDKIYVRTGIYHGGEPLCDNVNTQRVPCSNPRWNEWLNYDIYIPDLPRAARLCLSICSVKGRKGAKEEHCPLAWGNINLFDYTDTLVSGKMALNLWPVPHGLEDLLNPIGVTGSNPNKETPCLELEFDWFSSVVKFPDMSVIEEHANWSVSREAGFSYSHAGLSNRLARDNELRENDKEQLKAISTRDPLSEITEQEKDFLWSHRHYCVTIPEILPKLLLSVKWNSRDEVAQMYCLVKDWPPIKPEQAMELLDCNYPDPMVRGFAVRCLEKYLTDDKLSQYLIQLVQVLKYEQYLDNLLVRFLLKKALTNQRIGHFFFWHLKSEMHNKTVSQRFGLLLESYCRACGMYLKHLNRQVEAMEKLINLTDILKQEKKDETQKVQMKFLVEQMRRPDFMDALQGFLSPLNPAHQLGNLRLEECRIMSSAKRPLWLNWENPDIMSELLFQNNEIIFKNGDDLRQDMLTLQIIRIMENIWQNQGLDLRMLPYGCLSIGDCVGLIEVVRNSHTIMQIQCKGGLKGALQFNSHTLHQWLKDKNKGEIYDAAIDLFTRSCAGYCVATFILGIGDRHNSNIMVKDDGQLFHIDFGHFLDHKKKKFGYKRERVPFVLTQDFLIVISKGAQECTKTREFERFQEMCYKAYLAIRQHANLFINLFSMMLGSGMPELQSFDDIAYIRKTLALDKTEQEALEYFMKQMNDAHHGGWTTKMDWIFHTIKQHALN

Row | pKd (MTOR_h) | pKd (PIK3Cα_h) | pKd (PIK3Cβ_h) | pKd (PIK3Cγ_h) | pKd (PIK3Cδ_h) | pIC50 [1] | pIC50 [2] | melting point [°C] | SMILES
1 | < 4.52 | < 4.52 | 8.06 | < 4.52 | 5.83 | 6.41 | ~6.66 | 130 | Cc1c(Cc2c(C(=O)N3C[C@@H](C)N[C@@H](C)C3)nc3ncc(N4CCOCC4)cn23)cccc1C(F)(F)F [Compound 23]
2 | 5.40 | 6.33 | 9.30 | 4.95 | 6.85 | ~7.40 | 7.55 | – | Cc1c(Cl)cccc1Nc1c(CO)nc2ccc(N3CCOCC3)cn12 [Compound 39]
3 | 4.89 | 6.52 | 9.52 | < 4.52 | 7.36 | 7.82 | ~8.00 | – | Cc1c(Cc2c(CN3CC4(C3)CS(=O)(=O)C4)nc3ccc(C4=CCOCC4)cn23)cccc1C(F)(F)F [Compound 40]
4 | 6.70 | 7.02 | 8.96 | 6.49 | 7.89 | 7.85 | 7.85 | – | Cc1c(Cc2c(CO)nc3c(-c4c[nH]cn4)cc(C4=CCOCC4)cn23)cccc1C(F)(F)F [Compound 41]
5 | 6.82 | 6.28 | 8.60 | 5.97 | 6.73 | 7.12 | ~7.70 | – | Cc1c(Cc2c(CO)nc3c(-c4ccn[nH]4)cc(C4=CCOCC4)cn23)cccc1C(F)(F)F [Compound 42]
6 | 5.78 | 6.23 | 9.05 | 5.72 | 7.46 | 7.28 | ~7.23 | – | Cc1c(Cc2c(CO)nc3c(-c4ncc[nH]4)cc(C4=CCOCC4)cn23)cccc1C(F)(F)F [Compound 43]
7 | 4.75 | 5.14 | 8.77 | 4.67 | 6.25 | 6.87 | 7.08 | – | Cc1nc2c(CO)cc(C3=CCOCC3)cn2c1Cc1cccc(C(F)(F)F)c1C [Compound 44]
8 | 4.73 | 4.84 | 7.04 | 4.80 | 5.46 | 6.84 | 6.78 | – | Cc1c(Cc2c(CO)nc3c(N)cc(N4CCOCC4)cn23)cccc1C(F)(F)F [Compound 45]
9 | 5.23 | 5.07 | 7.80 | 5.19 | 5.97 | 7.49 | 7.74 | 223 | Cc1c(Cc2c(CO)nc3c(N)cc(C4=CCOCC4)cn23)cccc1C(F)(F)F [Compound 46]
10 | < 4.52 | 5.02 | 7.31 | 4.89 | 5.32 | < 6.29 | < 6.29 | 222 | CN1CCC(c2c(F)cccc2Cc2c(CO)nc3ncc(N4CCOCC4)cn23)CC1 [Compound 48]
11 | < 4.52 | 5.59 | 7.82 | 4.80 | 5.65 | < 6.29 | < 6.29 | 224 | OCc1nc2ncc(N3CCOCC3)cn2c1Cc1cccc(F)c1C1CCNCC1 [Compound 49]

More lines, now with the values behind:

Row | SMILES | pKd (MTOR_h) | pKd (PIK3Cα_h) | pKd (PIK3Cβ_h) | pKd (PIK3Cγ_h) | pKd (PIK3Cδ_h) | pIC50 [1] | pIC50 [2] | melting point [°C]
12 | Cc1nc2c(-c3ccn[nH]3)nc(C3=CCOCC3)cn2c1Cc1cccc(C(F)(F)F)c1C [Compound 1] | 6.03 | 6.54 | 8.80 | 5.97 | 7.16 | 7.85 | 8.15 | 240
13 | Cc1nc2c(C(N)=O)nc(C3=CCOCC3)cn2c1Cc1cccc(C(F)(F)F)c1C [Compound 5] | 4.91 | 5.74 | 8.33 | 5.20 | 6.05 | ~7.06 | ~7.19 | 257
14 | Cc1nc2c(-c3c[nH]cn3)nc(C3=CCOCC3)cn2c1Cc1cccc(C(F)(F)F)c1C [Compound 6] | 5.66 | 6.46 | 8.26 | 5.33 | 6.17 | 6.73 | 7.23 | 197
15 | Cc1c(Cc2c(CN3CCC(CO)CC3)nc3cnc(N4CCOCC4)cn23)cccc1C(F)(F)F [Compound 10] | < 4.52 | < 4.52 | 7.39 | < 4.52 | 5.37 | < 6.29 | < 6.29 | 198
16 | Cc1c(Cc2c(CCO)nc3cnc(N4CCOCC4)cn23)cccc1C(F)(F)F [Compound 13] | < 4.52 | 4.69 | 6.90 | < 4.52 | 4.85 | < 6.29 | < 6.29 | 142
17 | CCOC(=O)Cc1nc2cnc(N3CCOCC3)cn2c1Cc1cccc(C(F)(F)F)c1C [Compound 17] | – | – | – | – | – | – | – | 135
18 | Cc1c(Cc2c(CN3C[C@@H](C)N[C@@H](C)C3)nc3ncc(N4CCOCC4)cn23)cccc1C(F)(F)F [Compound 19] | < 4.52 | 4.78 | 8.38 | < 4.52 | 5.91 | 6.42 | 6.73 | 263
19 | Cc1c(Cc2c(CN3CC4(C3)CS(=O)(=O)C4)nc3ncc(N4CCOCC4)cn23)cccc1C(F)(F)F [Compound 21] | < 4.52 | 5.83 | 9.40 | < 4.52 | 6.91 | 7.82 | 7.77 | 228
20 | Cc1c(Cc2c(CN3CCS(=O)(=O)CC3)nc3ncc(N4CCOCC4)cn23)cccc1C(F)(F)F [Compound 22] | < 4.52 | 5.84 | 8.51 | < 4.52 | 6.20 | 6.67 | ~7.10 | 225
